For data set [1], the system named is DNA. The data set can be described thus: DNA binding activity by capillary zone electrophoresis. Here is the method:
The DNA binding activity of the tetrapeptide amides in the first library was measured using capillary zone electrophoresis.

Data set [2] in a line: solubility of building block 3 in solvents. Type of data set: physicochemical. The method, then: 2-(2′-Boc-aminomethyl-oxazole-4′-yl)-thiazole-4-carboxylic acid (37) (0.65 g, 2 mmol) was added in 30 ml of 40% TFA in DCM and stirred for 60 min. The solvent was removed by concentration under reduced pressure. The residue was diluted with 10 ml of water, which was neutralized to pH 7 by adding 1 M sodium hydroxide (aqueous solution), followed by addition of solid sodium carbonate (0.42 g, 4 mmole) and a solution of Fmoc-OSu (1 g, 3 mmole) in 60 ml of THF. After stirring for 2 hours (white solid precipitated), the reaction mixture was concentrated under reduced pressure to remove the THF, and diluted with 30 ml of water. The aqueous solution was washed with DCM (50 ml×3), and acidified to pH 3 by adding 10% potassium hydrogensulfate (aqueous solution). The white solid which formed was collected by filtration. This product was insoluble in DCM, ether, EtOAc, THF, methanol, ethanol, acetonitrile, HFIP, DMF, NMP and water. It was soluble in DMSO or the solutions containing more than 50% DMSO in DMF or NMP. The product was recrystallized in DMSO-water to give a fine white powder (0.69 g). Yield: 77%. RP-HPLC analysis: retention […]=14.18 min (average of two runs). ^1H-NMR (90 MHz, DMSO-d6) δ ppm: 8.74 (s, 1H), 8.38 (s, 1H), 7.89-7.31 (m, 8H), and 4.394.30 (m, 5H). ESI-MS (m/z): 448.2 [M +H]+, (calculated monoisotopic mass 448.10), 470.2 [M+Na]^+, 486.2 [M+K]^+.

The test system of data set [3] is Vibrio anguillarum. The data set can be described thus: growth of Vibrio anguillarum cultures (OD650) after incubation with peptide. It counts as cell-based. Conditions: for effect on the growth of V. anguillarum cultures: result in words; for OD650 of V. anguillarum cultures: 28°; for killing of the bacteria: OD of the cultures still increased at different incubation times. The method, then: The marin bacterium Vibrio anguillarum, a fish pathogen causing the disease “vibriosis” in marine fish and shellfish were used in this experiment.
Bacteria (V. anguillarum) were grown overnight at 28° C. in Luria-Bertani (LB) 20 medium (the concentration of NaCl is 20 g/L for marine bacteria in LB medium, instead of the usual 10 g/L). The culture was re-inoculated and incubated in LB20 medium at 28° C. (ca. 2hr) to reach the exponential growth phase of the bacteria. The bacterial suspension was then dilute with 0.1×LB20 medium to make the bacterial dilution containing 2×10^3 colony-forming units (cfm)/ml.
At time zero, the bacteria were treated with the peptide in 0.1×LB20 medium. After incubation for 3 hours, 1×LB20 medium was added to the culture, and incubated for 20 hours.

Where [4] appears, read: 31.2 μM peptide, 9 hr incubation.
The mark [5] stands for this setting: 31.2 μM peptide, 20 hr incubation.
[6] abbreviates: 62.5 μM peptide, 9 hr incubation.
Setting [7] is: 62.5 μM peptide, 20 hr incubation.
Setting [8] is: 125 μM peptide, 9 hr incubation.
Where [9] appears, read: 125 μM peptide, 20 hr incubation.
Setting [10] is: 250 μM peptide, 9 hr incubation.
Where [11] appears, read: 250 μM peptide, 20 hr incubation.
[12] abbreviates: 500 μM peptide, 9 hr incubation.
The mark [13] stands for this setting: 500 μM peptide, 20 hr incubation.

Nine molecules from patent US20060161007A1, “Oxazole and thiazole combinatorial libraries” (priority 1999, published 2006) can be followed below.

For the molecule “2-(2′-Fmoc-aminomethyl-oxazole-4′-yl)-thiazole-4-carboxylic acid [Compound 3]”, the “Ka(1), stoichiometric equilibrium binding constant near saturation” value in data set [1] is 20000 M⁻¹.
Same read-out and setting: under “2-(Fmoc-aminomethyl)-oxazole-4-carboxylic acid [Compound 2]” stands 24000 M⁻¹.
Still for that read-out and setting: next, “2-(Fmoc-aminomethyl)-thiazole-4-carboxylic acid [Compound 1]”: 25000 M⁻¹.
As to `O=C(NCc1nc(-c2nc(C(=O)O)cs2)co1)OCC1c2ccccc2-c2ccccc21` [Compound 3, 2-(2′-Fmoc-aminomethyl-oxazole-4′-yl)-thiazole-4-carboxylic acid], the solubility result in data set [2] (in DCM, ethyl ether, EtOAc, THF, methanol, ethanol, acetonitrile, HFIP, DMF, NMP or water) was “did not dissolve”; in data set [2] (in DCM, ethyl ether, EtOAc, THF, methanol, ethanol, acetonitrile, HFIP, DMF, NMP or water, listed as Compound (3)), “insoluble”; in data set [2] (in DMSO, or solutions containing at least 50% DMSO in DMF or NMP) it was “could only dissolve”; in data set [2] (in DMSO, or solutions containing at least 50% DMSO in DMF or NMP, listed as Compound (3)) it was “soluble”.
Regarding `CC(=O)NCc1nc(-c2nc(C(=O)NCC(=O)NCc3nc(C(=O)NCCCN)cs3)cs2)co1` [Compound L2-3], the “effect on the growth of V. anguillarum cultures” value (“effect on the growth” for short) in data set [3] is “did not have a detectable effect”.
Turning to `CC(=O)NCc1nc(-c2nc(C(=O)NCC(=O)NCc3nc(C(=O)NCCCN)co3)cs2)co1` [Compound L2-6], the “OD650 of V. anguillarum cultures” value in data set [3] (setting [4]) was determined as 0.137; in data set [3] (setting [5]) it was 0.395; in data set [3] (setting [6]), 0.130; in data set [3] (setting [7]) it was 0.391; in data set [3] (setting [8]), 0.120; in data set [3] (setting [9]), 0.402. The “OD650 of V. anguillarum cultures” value stood at 0.113 in data set [3] (setting [10]), 0.427 in data set [3] (setting [11]), 0.073 in data set [3] (setting [12]) and 0.388 in data set [3] (setting [13]). In addition, the “killing of the bacteria” value in data set [3] is reported as “did not kill the bacteria”. Also, in data set [3], the “effect on the growth” value is on record as “inhibited the growth”.
With `CC(=O)NCc1nc(-c2nc(C(=O)NCC(=O)NCc3nc(-c4nc(C(=O)NCCCN)cs4)co3)cs2)co1` [Compound L2-9], the “OD650 of V. anguillarum cultures” value stood at 0.135 in data set [3] (setting [4]); 0.417 in data set [3] (setting [5]); 0.135 in data set [3] (setting [6]); 0.421 in data set [3] (setting [7]); 0.131 in data set [3] (setting [8]); 0.425 in data set [3] (setting [9]). The “OD650 of V. anguillarum cultures” value in data set [3] (setting [10]) worked out at 0.125; in data set [3] (setting [11]), 0.409; in data set [3] (setting [12]) it was 0.075; in data set [3] (setting [13]), 0.354. In addition, in data set [3], the “killing of the bacteria” value is reported as “did not kill the bacteria”. Further, in data set [3], the “effect on the growth” value is on record as “inhibited the growth”.
Consider “Microcin B17 fragment 13-23 [Compound 39]”, for which the “OD650 of V. anguillarum cultures” value in data set [3] (setting [4]) turned out to be 0.111; in data set [3] (setting [5]), 0.419; in data set [3] (setting [6]), 0.082; in data set [3] (setting [7]), 0.297; in data set [3] (setting [8]), 0.051; in data set [3] (setting [9]), 0.279. For the same molecule, the “OD650 of V. anguillarum cultures” value in data set [3] (setting [10]) is recorded as 0.034; in data set [3] (setting [11]), 0.241; in data set [3] (setting [12]) it was 0.034; in data set [3] (setting [13]) it was 0.244. The “killing of the bacteria” value in data set [3] is “did not kill the bacteria”. In addition, in data set [3], the “effect on the growth” value is “inhibited the growth”.
In the case of tachyplesin [reference compound], the “OD650 of V. anguillarum cultures” value in data set [3] (6.25 μg/ml peptide, 9 hr incubation) was found to be 0.068; in data set [3] (6.25 μg/ml peptide, 20 hr incubation) it was 0.036; in data set [3] (12.5 μg/ml peptide, 9 hr incubation), 0.035; in data set [3] (12.5 μg/ml peptide, 20 hr incubation), 0.035; in data set [3] (25 μg/ml peptide, 9 hr incubation), 0.035; in data set [3] (25 μg/ml peptide, 20 hr incubation), 0.035. For the same molecule, the “OD650 of V. anguillarum cultures” value stood at 0.039 in data set [3] (50 μg/ml peptide, 9 hr incubation); 0.038 in data set [3] (50 μg/ml peptide, 20 hr incubation); 0.098 in data set [3] (Dilution 5 (31.2 μg/ml) peptide, 9 hr incubation); 0.034 in data set [3] (Dilution 5 (31.2 μg/ml) peptide, 20 hr incubation).
